This is an account of results in patent US20240000767A1, “COMBINATION OF AN ALPHA2-ADRENOCEPTOR SUBTYPE C (ALPHA-2C) ANTAGONIST WITH A TASK1/3 CHANNEL BLOCKER FOR THE TREATMENT OF SLEEP APNEA” (Bayer Aktiengesellschaft, priority 2020, published 2024).

Broadly, the IC50 is the concentration at which inhibition is half-maximal.

In the assay the target is human ADRA2C receptor (Homo sapiens (Human), UniProt P18825). Briefly: In vitro activity assay to determine the inhibition of recombinant ADRA2C (CHO-K1 cells, aequorin bioluminescence). The assay is classed as cell-based. The note with it: inhibition of noradrenaline-induced bioluminescence signal; some mean values from multiple determinations; read-out: ARα2C IC50. As for the experimental part: B-2. In Vitro Activity Assay to Determine the Inhibition of Recombinant ADRA2C
The human ADRA2C receptor belongs to the G protein(guanine-dependent protein)-coupled receptors, the main function of which is the transduction of signals into the interior of the cell.
The investigations of the inhibition of the recombinant human ADRA2C receptors were carried out with stabily transfected CHO-K1 cells coexpressing the Gaq protein and the calcium-sensitive photoprotein aequorin. In this recombinant system, binding of the agonists noradrenaline to the ADRA2C receptor leads, after activation of a signal cascade, to calcium release from intracellular stores, which is detected by the intracellular calcium sensor aequorin as a bioluminescent signal. The method is described in detail in the reference below. [Wunder F., Kalthof B., Muller T., Hueser J. Functional Cell-Based Assays in Microliter Volumes for Ultra-High Throughput Screening. Combinatorial Chemistry & High Throughput Screening, Volume 11, Number 7, 2008, pp. 495-504(10). doi.org/10.2174/138620708785204054]
The activity of the test substances was determined via their ability to inhibit the agonist-induced increase of the bioluminescence signal. The concentration which can block half of this signal increase is referred to as IC50. The IC50 value is calculated using the 4 parameter logistic function (Hill function):
Top=upper threshold, Bottom=lower threshold, Slope=slope, IC50=turning point

Chain of human ADRA2C receptor (P18825 whole entry): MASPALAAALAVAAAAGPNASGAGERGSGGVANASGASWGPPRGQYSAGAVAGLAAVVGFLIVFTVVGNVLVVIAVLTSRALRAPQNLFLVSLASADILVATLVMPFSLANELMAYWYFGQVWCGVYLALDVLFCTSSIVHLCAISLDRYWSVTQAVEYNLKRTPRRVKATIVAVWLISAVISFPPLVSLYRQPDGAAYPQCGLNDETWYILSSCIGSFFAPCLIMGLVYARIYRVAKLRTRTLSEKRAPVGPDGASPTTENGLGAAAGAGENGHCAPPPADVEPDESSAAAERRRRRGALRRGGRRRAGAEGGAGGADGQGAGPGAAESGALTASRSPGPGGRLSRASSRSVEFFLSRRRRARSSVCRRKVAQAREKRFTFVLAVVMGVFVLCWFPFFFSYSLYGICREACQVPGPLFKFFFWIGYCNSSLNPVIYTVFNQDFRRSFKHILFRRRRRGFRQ

As for `CC(C)C1CCCN(C2CCN(c3ncc(C(=O)NCc4ncc(F)cc4F)s3)CC2)C1` (racemic) [Example 103, rac-N-[(3,5-Difluoropyridin-2-yl)methyl]-2-(3-isopropyl[1,4′-bipiperidin]-1′-yl)-1,3-thiazole-5-carboxamide], the 50% inhibitory concentration (IC50) is 0.83 nM.

In the case of `O=C(NCc1ncc(F)cc1F)c1cnc(N2CCC(N3CCCC(OC4CCC4)C3)CC2)s1` (racemic) [Example 109, rac-2-[3-(Cyclobutyloxy)[1,4′-bipiperidin]-1′-yl]-N-[(3,5-difluoropyridin-2-yl)methyl]-1,3-thiazole-5-carboxamide], the 50% inhibitory concentration (IC50) amounted to 0.85 nM. The result for `O=C(NCc1ncc(F)cc1F)c1cnc(N2CCC(N3CCCC(OC4CC(F)(F)C4)C3)CC2)s1` (racemic) [Example 110, rac-2-{3-[(3,3-Difluorocyclobutyl)oxy][1,4′-bipiperidin]-1′-yl}-N-[(3,5-difluoropyridin-2-yl)methyl]-1,3-thiazole-5-carboxamide] reads 1.5 nM.

On to `CCCC1CCCN(C2CCN(c3ncc(C(=O)NCc4ncc(F)cc4F)s3)CC2)C1` (racemic) [Example 121, rac-N-[(3,5-Difluoropyridin-2-yl)methyl]-2-(3-propyl[1,4′-bipiperidin]-1′-yl)-1,3-thiazole-5-carboxamide], for which the half-maximal inhibitory concentration (IC50) is 0.65 nM. For `O=C(NCc1ncc(F)cc1F)c1cnc(N2CCC(N3CCCC(CCF)C3)CC2)s1` (racemic) [Example 127, rac-Formic acid N-[(3,5-difluoropyridin-2-yl)methyl]-2-[3-(2-fluoroethyl)[1,4′-bipiperidin]-1′-yl]-1,3-thiazole-5-carboxamide], the IC50 turned out to be 8.4 nM. For `O=C(NCc1ncc(F)cc1F)c1cnc(N2CCC(N3CCCC(c4ccccc4)C3)CC2)s1` (racemic) [Example 133, rac-N-[(3,5-Difluoropyridin-2-yl)methyl]-2-(3-phenyl[1,4′-bipiperidin]-1′-yl)-1,3-thiazole-5-carboxamide], the half-maximal inhibitory concentration (IC50) came to 0.95 nM. The result for `CC(NC(=O)c1cnc(N2CCC(N3CCC[C@@H](C)C3)CC2)s1)c1cc(F)ccc1F` (single isomer, unassigned) [Example 46] reads 8.3 nM; that for `CC(NC(=O)c1cnc(N2CCC(N3CCC[C@@H](C)C3)CC2)s1)c1cc(F)ccc1F` (single isomer, unassigned) [Example 47], 25 nM.

As to `C[C@@H]1CCCN(C2CCN(c3ncc(C(=O)NCc4ncc(F)cc4F)s3)CC2F)C1` (single isomer, unassigned) [Example 51], the IC50 is 150 nM. With `C[C@@H]1CCCN(C2CCN(c3ncc(C(=O)NCc4ncc(F)cc4F)s3)CC2F)C1` (single isomer, unassigned) [Example 52], the IC50 amounted to 6.7 nM.

For the compound `COCC1CCCN(C2CCN(c3ncc(C(=O)NCc4ncc(F)cc4F)s3)CC2)C1` (single isomer, unassigned) [Example 99, ent-N-[(3,5-Difluoropyridin-2-yl)methyl]-2-[3-(methoxymethyl) [1,4′-bipiperidin]-1′-yl]-1,3-thiazole-5-carboxamide], the concentration for half-maximal inhibition (IC50) worked out at 590 nM. The result for `CC1CCCN(C2CCN(c3ncc(C(=O)NCc4ncc(F)cc4F)s3)CC2)CC1` (single isomer, unassigned) [Example 104, ent-N-[(3,5-Difluoropyridin-2-yl)methyl]-2-[4-(4-methylazepan-1-yl)piperidin-1-yl]-1,3-thiazole-5-carboxamide] reads 10 nM. As for `CC1CCCN(C2CCN(c3ncc(C(=O)NCc4ncc(F)cc4F)s3)CC2)CC1` (single isomer, unassigned) [Example 105, ent-N-[(3,5-Difluoropyridin-2-yl)methyl]-2-[4-(4-methylazepan-1-yl)piperidin-1-yl]-1,3-thiazole-5-carboxamide], the figure is 4.3 nM; as for `O=C(NCc1ncc(F)cc1F)c1cnc(N2CCC(N3CCCC(COCC(F)(F)F)C3)CC2)s1` (single isomer, unassigned) [Example 106, ent-N-[(3,5-Difluoropyridin-2-yl)methyl]-2-{3-[(2,2,2-trifluoroethoxy)methyl][1,4′-bipiperidin]-1′-yl}-1,3-thiazole-5-carboxamide], 0.5 nM; as for `O=C(NCc1ncc(F)cc1F)c1cnc(N2CCC(N3CCCC(COCC(F)(F)F)C3)CC2)s1` (single isomer, unassigned) [Example 107, ent-N-[(3,5-Difluoropyridin-2-yl)methyl]-2-{3-[(2,2,2-trifluoroethoxy)methyl][1,4′-bipiperidin]-1′-yl}-1,3-thiazole-5-carboxamide], 37 nM. `CCOC1CCCN(C2CCN(c3ncc(C(=O)NCc4ncc(F)cc4F)s3)CC2)C1` (single isomer, unassigned) [Example 123, ent-N-[(3,5-Difluoropyridin-2-yl)methyl]-2-(3-ethoxy[1,4′-bipiperidin]-1′-yl)-1,3-thiazole-5-carboxamide]: the half-inhibitory concentration (IC50) amounted to 260 nM. The result for `CCOC1CCCN(C2CCN(c3ncc(C(=O)NCc4ncc(F)cc4F)s3)CC2)C1` (single isomer, unassigned) [Example 124, ent-N-[(3,5-Difluoropyridin-2-yl)methyl]-2-(3-ethoxy[1,4′-bipiperidin]-1′-yl)-1,3-thiazole-5-carboxamide] reads 2.9 nM; that for `O=C(NCc1ncc(F)cc1F)c1cnc(N2CCC(N3CCCC(COCC4CC4)C3)CC2)s1` (single isomer, unassigned; ent-2) [Example 115, ent-2-{3-[(Cyclopropylmethoxy)methyl][1,4′-bipiperidin]-1′-yl}-N-[(3,5-difluoropyridin-2-yl)methyl]-1,3-thiazole-5-carboxamide], 0.61 nM; that for `O=C(NCc1ncc(F)cc1F)c1cnc(N2CCC(N3CCCC(COCC4CC4)C3)CC2)s1` (single isomer, unassigned; ent-2) [Example 116, ent-2-{3-[(Cyclopropylmethoxy)methyl][1,4′-bipiperidin]-1′-yl}-N-[(3,5-difluoropyridin-2-yl)methyl]-1,3-thiazole-5-carboxamide], 11 nM.

On to `O=C(NCc1ncc(F)cc1F)c1cnc(N2CCC(N3CCCC4(C3)CC4(F)F)CC2)s1` (single isomer, unassigned; ent-2) [Example 131, ent-2-[4-(1,1-Difluoro-5-azaspiro[2.5]octan-5-yl)piperidin-1-yl]-N-[(3,5-difluoropyridin-2-yl)methyl]-1,3-thiazole-5-carboxamide], for which the IC50 turned out to be 1.9 nM.

With `O=C(NCc1ncc(F)cc1F)c1cnc(N2CCC(N3CCCC4(C3)CC4(F)F)CC2)s1` (single isomer, unassigned; ent-2) [Example 132, ent-2-[4-(1,1-Difluoro-5-azaspiro[2.5]octan-5-yl)piperidin-1-yl]-N-[(3,5-difluoropyridin-2-yl)methyl]-1,3-thiazole-5-carboxamide (enantiomer 2)], the half-maximal inhibitory concentration (IC50) amounted to 0.71 nM. The result for `O=C(NCc1ncc(F)cc1F)c1cnc(N2CCC(N3CCc4ccccc4C3)CC2)s1` [Example 2, N-[(3,5-Difluoropyridin-2-yl)methyl]-2-[4-(3,4-dihydroisoquinolin-2(1H)-yl)piperidin-1-yl]-1,3-thiazole-5-carboxamide] reads 5.2 nM; that for `Cc1nc(N2CCC(N3CCC[C@@H](C)C3)CC2)sc1C(=O)NCc1ncc(F)cc1F` [Example 8, N-[(3,5-difluoropyridin-2-yl)methyl]-4-methyl-2-[(3R)-3-methyl[1,4′-bipiperidin]-1′-yl]-1,3-thiazole-5-carboxamide], 591 nM.
